Data: the supplement of paper PMC10307832

Experiments:
Test in all cases: relative viability (nuclei count vs DMSO), 5 days (fraction); higher = more cells survive
ABC-1 = system: ABC-1
Method in brief: (§1)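 Medians of duplicate plates are given as relative viability. That measure is the nuclei count in treated wells divided by the count in vehicle wells. Counts were taken on 4× images of lung cancer cell lines in 1536-well plates, 5 days after pin-tool dosing the day after seeding with one drug alone or a fixed anchor-drug dose plus five library-drug doses (not always all listed) in √10 steps.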

CAL-12T = system: CAL-12T
Method in brief: as §1

COR-L 105 = system: COR-L 105
Method in brief: as §1

ChaGo-K-1 = system: ChaGo-K-1
Method in brief: as §1

EMC-BAC-2 = system: EMC-BAC-2
Method in brief: as §1

EPLC-272H = system: EPLC-272H
Method in brief: as §1

HCC-15 = system: HCC-15
Method in brief: as §1

HCC-78 = system: HCC-78
Method in brief: as §1

HOP-62 = system: HOP-62
Method in brief: as §1

LXF-289 = system: LXF-289
Method in brief: as §1

NCI-H1666 = system: NCI-H1666
Method in brief: as §1

NCI-H1755 = system: NCI-H1755
Method in brief: as §1

NCI-H1915 = system: NCI-H1915
Method in brief: as §1

NCI-H1975 = system: NCI-H1975
Method in brief: as §1

NCI-H2023 = system: NCI-H2023
Method in brief: as §1

NCI-H2085 = system: NCI-H2085
Method in brief: as §1

NCI-H2126 = system: NCI-H2126
Method in brief: as §1

NCI-H3122 = system: NCI-H3122
Method in brief: as §1

NCI-H322M = system: NCI-H322M
Method in brief: as §1

NCI-H358 = system: NCI-H358
Method in brief: as §1

NCI-H441 = system: NCI-H441
Method in brief: as §1

UMC-11 = system: UMC-11
Method in brief: as §1

Q: For CC(=O)O[C@@]12CO[C@@H]1C[C@H](O)[C@@]1(C)C(=O)[C@H](O)C3=C(C)[C@@H](OC(=O)[C@H](O)[C@@H](NC(=O)OC(C)(C)C)c4ccccc4)C[C@@](O)([C@@H](OC(=O)c4ccccc4)[C@H]21)C3(C)C [Docetaxel] + C[C@@H](Oc1cc(-c2cnn(C3CCNCC3)c2)cnc1N)c1c(Cl)ccc(F)c1Cl [Crizotinib] (partner 1 µM), which relative viability (ABC-1; first compound 0.0002 µM) is on record?
A: 1.04

Q: And the relative viability (ABC-1; first compound 0.000632 µM)?
A: 0.78

Q: And the relative viability (ABC-1; first compound 0.002 µM)?
A: 0.274

Q: And the relative viability (ABC-1; first compound 0.006325 µM)?
A: 0.275

Q: What about the relative viability (ABC-1; first compound 0.02 µM) of the same compound?
A: 0.242

Q: What about the relative viability (CAL-12T; first compound 0.0002 µM) of the same compound?
A: 0.717

Q: What about the relative viability (CAL-12T; first compound 0.000632 µM) of the same compound?
A: 0.341

Q: What about the relative viability (CAL-12T; first compound 0.002 µM) of the same compound?
A: 0.146

Q: What about the relative viability (CAL-12T; first compound 0.02 µM) of the same compound?
A: 0.096

Q: And the relative viability (COR-L 105; first compound 0.0002 µM)?
A: 0.768

Q: What about the relative viability (COR-L 105; first compound 0.000632 µM) of the same compound?
A: 0.588

Q: And the relative viability (COR-L 105; first compound 0.002 µM)?
A: 0.361

Q: And the relative viability (COR-L 105; first compound 0.006325 µM)?
A: 0.285

Q: And the relative viability (COR-L 105; first compound 0.02 µM)?
A: 0.248

Q: And the relative viability (ChaGo-K-1; first compound 0.0002 µM)?
A: 1.06

Q: And the relative viability (ChaGo-K-1; first compound 0.000632 µM)?
A: 0.813

Q: What about the relative viability (ChaGo-K-1; first compound 0.002 µM) of the same compound?
A: 0.457

Q: And the relative viability (ChaGo-K-1; first compound 0.006325 µM)?
A: 0.339

Q: What about the relative viability (ChaGo-K-1; first compound 0.02 µM) of the same compound?
A: 0.263

Q: What about the relative viability (EMC-BAC-2; first compound 0.0002 µM) of the same compound?
A: 0.651

Q: And the relative viability (EMC-BAC-2; first compound 0.000632 µM)?
A: 0.401

Q: And the relative viability (EMC-BAC-2; first compound 0.002 µM)?
A: 0.404

Q: And the relative viability (EMC-BAC-2; first compound 0.02 µM)?
A: 0.161

Q: And the relative viability (EPLC-272H; first compound 0.0002 µM)?
A: 0.832

Q: And the relative viability (EPLC-272H; first compound 0.000632 µM)?
A: 0.547

Q: What about the relative viability (EPLC-272H; first compound 0.002 µM) of the same compound?
A: 0.321

Q: What about the relative viability (EPLC-272H; first compound 0.006325 µM) of the same compound?
A: 0.0867

Q: And the relative viability (EPLC-272H; first compound 0.02 µM)?
A: 0.1

Q: What about the relative viability (HCC-15; first compound 0.0002 µM) of the same compound?
A: 0.818

Q: And the relative viability (HCC-15; first compound 0.000632 µM)?
A: 0.452

Q: What about the relative viability (HCC-15; first compound 0.002 µM) of the same compound?
A: 0.172

Q: And the relative viability (HCC-15; first compound 0.006325 µM)?
A: 0.207

Q: What about the relative viability (HCC-15; first compound 0.02 µM) of the same compound?
A: 0.14

Q: And the relative viability (HCC-78; first compound 0.0002 µM)?
A: 0.33

Q: And the relative viability (HCC-78; first compound 0.000632 µM)?
A: 0.32

Q: And the relative viability (HCC-78; first compound 0.002 µM)?
A: 0.245

Q: What about the relative viability (HCC-78; first compound 0.006325 µM) of the same compound?
A: 0.308

Q: What about the relative viability (HCC-78; first compound 0.02 µM) of the same compound?
A: 0.223

Q: And the relative viability (HOP-62; first compound 0.0002 µM)?
A: 0.903

Q: What about the relative viability (HOP-62; first compound 0.000632 µM) of the same compound?
A: 0.386

Q: And the relative viability (HOP-62; first compound 0.02 µM)?
A: 0.129

Q: And the relative viability (LXF-289; first compound 0.0002 µM)?
A: 0.819

Q: And the relative viability (LXF-289; first compound 0.000632 µM)?
A: 0.483

Q: What about the relative viability (LXF-289; first compound 0.002 µM) of the same compound?
A: 0.452

Q: And the relative viability (LXF-289; first compound 0.006325 µM)?
A: 0.119

Q: And the relative viability (LXF-289; first compound 0.02 µM)?
A: 0.139

Q: What about the relative viability (NCI-H1666; first compound 0.0002 µM) of the same compound?
A: 0.67

Q: And the relative viability (NCI-H1666; first compound 0.000632 µM)?
A: 0.508

Q: What about the relative viability (NCI-H1666; first compound 0.002 µM) of the same compound?
A: 0.337

Q: What about the relative viability (NCI-H1666; first compound 0.006325 µM) of the same compound?
A: 0.259

Q: What about the relative viability (NCI-H1666; first compound 0.02 µM) of the same compound?
A: 0.24

Q: And the relative viability (NCI-H1755; first compound 0.0002 µM)?
A: 0.833

Q: And the relative viability (NCI-H1755; first compound 0.000632 µM)?
A: 0.535

Q: And the relative viability (NCI-H1755; first compound 0.002 µM)?
A: 0.503

Q: What about the relative viability (NCI-H1755; first compound 0.006325 µM) of the same compound?
A: 0.382

Q: What about the relative viability (NCI-H1755; first compound 0.02 µM) of the same compound?
A: 0.353

Q: What about the relative viability (NCI-H1915; first compound 0.0002 µM) of the same compound?
A: 0.892

Q: And the relative viability (NCI-H1915; first compound 0.000632 µM)?
A: 0.803

Q: And the relative viability (NCI-H1915; first compound 0.002 µM)?
A: 0.325

Q: And the relative viability (NCI-H1915; first compound 0.006325 µM)?
A: 0.181

Q: What about the relative viability (NCI-H1915; first compound 0.02 µM) of the same compound?
A: 0.141

Q: What about the relative viability (NCI-H1975; first compound 0.0002 µM) of the same compound?
A: 0.861

Q: And the relative viability (NCI-H1975; first compound 0.000632 µM)?
A: 0.483

Q: What about the relative viability (NCI-H1975; first compound 0.002 µM) of the same compound?
A: 0.23

Q: What about the relative viability (NCI-H1975; first compound 0.006325 µM) of the same compound?
A: 0.192

Q: And the relative viability (NCI-H1975; first compound 0.02 µM)?
A: 0.142

Q: What about the relative viability (NCI-H2023; first compound 0.0002 µM) of the same compound?
A: 0.587

Q: What about the relative viability (NCI-H2023; first compound 0.000632 µM) of the same compound?
A: 0.451

Q: And the relative viability (NCI-H2023; first compound 0.002 µM)?
A: 0.123

Q: What about the relative viability (NCI-H2023; first compound 0.006325 µM) of the same compound?
A: 0.096

Q: And the relative viability (NCI-H2023; first compound 0.02 µM)?
A: 0.0789

Q: And the relative viability (NCI-H2085; first compound 0.0002 µM)?
A: 0.63

Q: And the relative viability (NCI-H2085; first compound 0.000632 µM)?
A: 0.706

Q: What about the relative viability (NCI-H2085; first compound 0.002 µM) of the same compound?
A: 0.737

Q: And the relative viability (NCI-H2085; first compound 0.006325 µM)?
A: 0.415

Q: What about the relative viability (NCI-H2085; first compound 0.02 µM) of the same compound?
A: 0.317

Q: And the relative viability (NCI-H2126; first compound 0.0002 µM)?
A: 1.01

Q: What about the relative viability (NCI-H2126; first compound 0.000632 µM) of the same compound?
A: 1.03

Q: What about the relative viability (NCI-H2126; first compound 0.002 µM) of the same compound?
A: 0.632

Q: And the relative viability (NCI-H2126; first compound 0.006325 µM)?
A: 0.382

Q: What about the relative viability (NCI-H2126; first compound 0.02 µM) of the same compound?
A: 0.322

Q: And the relative viability (NCI-H3122; first compound 0.0002 µM)?
A: 0.241

Q: What about the relative viability (NCI-H3122; first compound 0.000632 µM) of the same compound?
A: 0.257

Q: What about the relative viability (NCI-H3122; first compound 0.002 µM) of the same compound?
A: 0.26

Q: What about the relative viability (NCI-H3122; first compound 0.006325 µM) of the same compound?
A: 0.207

Q: And the relative viability (NCI-H3122; first compound 0.02 µM)?
A: 0.178

Q: What about the relative viability (NCI-H322M; first compound 0.0002 µM) of the same compound?
A: 0.817

Q: What about the relative viability (NCI-H322M; first compound 0.000632 µM) of the same compound?
A: 0.91

Q: And the relative viability (NCI-H322M; first compound 0.002 µM)?
A: 0.71

Q: What about the relative viability (NCI-H322M; first compound 0.006325 µM) of the same compound?
A: 0.233

Q: And the relative viability (NCI-H322M; first compound 0.02 µM)?
A: 0.405

Q: What about the relative viability (NCI-H358; first compound 0.0002 µM) of the same compound?
A: 0.383

Q: And the relative viability (NCI-H358; first compound 0.000632 µM)?
A: 0.342

Q: What about the relative viability (NCI-H358; first compound 0.002 µM) of the same compound?
A: 0.16

Q: And the relative viability (NCI-H358; first compound 0.02 µM)?
A: 0.116

Q: What about the relative viability (NCI-H441; first compound 0.0002 µM) of the same compound?
A: 0.802

Q: And the relative viability (NCI-H441; first compound 0.000632 µM)?
A: 0.472

Q: What about the relative viability (NCI-H441; first compound 0.002 µM) of the same compound?
A: 0.29

Q: And the relative viability (NCI-H441; first compound 0.006325 µM)?
A: 0.193

Q: And the relative viability (NCI-H441; first compound 0.02 µM)?
A: 0.181

Q: And the relative viability (UMC-11; first compound 0.0002 µM)?
A: 0.612

Q: What about the relative viability (UMC-11; first compound 0.000632 µM) of the same compound?
A: 0.485

Q: And the relative viability (UMC-11; first compound 0.002 µM)?
A: 0.122

Q: And the relative viability (UMC-11; first compound 0.006325 µM)?
A: 0.108

Q: And the relative viability (UMC-11; first compound 0.02 µM)?
A: 0.084
